Test results reported in patent US20260137706A1, “METHODS OF TREATING INFLAMMATORY DISEASES” (INTERLINE THERAPEUTICS, INC., priority 2023, published 2026).
Like-named read-outs stand apart in the source and are kept apart here.

How the values were obtained:
[1] = molecular target: T1, binding of His-XIAP(BIR2)-avi fusion protein to GST-RIPK2 fusion protein (RIPK2/XIAP) (Homo sapiens, UniProt O43353); experiment: RIPK2-XIAP binding competition PPI assay (TR-FRET); settings: RIPK2/XIAP binding competition PPI assay; for Emax / PPI Amax bin: Amax; for Emax: read-out: PPI Amax bin; for IC50: read-out: PPI IC50 bin
T1 construct: made in house; host or cells: baculovirus infected Sf9 cells
Source text: The ability of selected compounds of Formula (I) to inhibit the binding of an His-XIAP(BIR2)-avi fusion protein to a GST-RIPK2 fusion protein was quantified employing the TR-FRET-based competition assay as described in the following paragraphs.
Recombinant fusion protein of N-terminal Glutathione-S-Transferase (GST) and a fragment of human RIPK2 (amino acids 1-310 of accession number 043353), expressed in baculovirus infected Sf9 cells, purified via glutathione affinity chromatography, was used as GST-RIPK2 fusion protein. Recombinant fusion protein of N-terminal 6×Histidine (His), a fragment of human XIAP (amino acids 152-231 of accession number P98170), and C-terminal avi tag, expressed in baculovirus infected Sf9 cells, purified via Nickel NTA affinity chromatography, was used as the His-XIAP(BIR2)-avi fusion protein.
For the assay, a working solution of 1 nM GST-RIPK2, 25 nM His-XIAP(BIR2)-avi, 6 nM Anti-His-XL665 […] (Revvity Catalogue No. 61HISXLB), and 0.5 nM Anti-GST-Tb (Revvity Catalogue No. 61GSTTLB) in 25 mM Tris-HCl 7.5, 0.5 mM ethylene glycol-bis(2-aminoethylether)-N,N,N′,N′-tetraacetic acid (EGTA), 10 mM magnesium chloride (MgCl2), 2.5 mM dithiothreitol (DTT), 0.01% (w/v) bovine serum albumin (BSA), 0.005% (w/v) Pluronic F-127 (Sigma), 0.5 mM sodium ortho-vanadate, 5 mM β-Glycerophosphate disodium salt hydrate (BGP) was prepared. 50 nL of a 100-fold concentrated solution of each test compound in DMSO was dispensed via acoustic dispensing into a white low volume 384-well microtiter plate (Perkin Elmer Catalogue No. 6008280). Subsequently, 5 μL of the assay working solution were added.
The resulting mixture was incubated 120 min at 23° C. Subsequently, the amount of complex formed by the GST-RIPK2, XIAP(BIR2)-avi, Anti-His-XL665, and Anti-GST-Tb was evaluated by measurement of the resonance energy transfer from the Tb-cryptate to the XL665. Therefore, the fluorescence emissions at 520 nm and 665 nm after excitation at 337 nm were measured in a TR-FRET reader, e.g. a Pherastar FS (BMG Labtechnologies, Offenburg, Germany) or an Envision (PerkinElmer). The ratio of the emissions at 665 nm and at 520 nm was taken as the measure of the amount of the complex. The data were normalized (assay reaction without inhibitor=0% activity, 50 nM of GSK583=−100% activity).
For the RIPK2/XIAP binding competition PPI assay Amax values, “A” denotes an Amax of ≥80%; “B” denotes an Amax of 80%>B≥55; “C” denotes an Amax of 55%>C>30; and “D” denotes an Amax of ≤30%.

[2] = tested on: NF-κB pathway (SEAP) in THP1-Dual cells; experiment: THP-1 Dual cell SEAP assay (L18-MDP stimulated); type: cell-based; settings: read-out: NF-κB THP1 IC50 bin
Experimental: THP1-Dual™ cells (InvivoGen Cat #thpd-nfis) allow simultaneous assessment of the NF-κB pathway, by monitoring the activity of secreted embryonic alkaline phosphatase (SEAP) as well as the IRF pathway, by assessing the activity of a secreted luciferase (Lucia). Cells were cultured according to manufacturers' recommendations. For the assay, cell concentration was adjusted to 7.14×10^5 cells/mL in assay media (RPMI 1640, 2 mM L-Glutamine, 25 mM HEPES, 10% fetal bovine serum (heat-inactivated for 30 min at 56° C.), Pen-Strep (100 U/mL)) and 35 µL of cell suspension (˜25,000 cells) per well were added to a flat bottom 384-well plate (white opaque). Plate was centrifuged at 300 g for 2 min, compounds were added in serial dilution series according to the plate layout (volumes ˜500 nL-0.0152 nL) and plate was incubated at 37° C. in 5% CO2 for 30 min. Using assay media, a L18-MDP stock solution, that results in a final concentration of 10 ng/mL L18-MDP in each well when adding 15 μL to each well, was prepared. 15 μL of L18-MDP stock solution was added to each well, while 15 μL of assay media was added to the negative control wells. Plates were subsequently incubated at 37° C. in 5% CO2 overnight (20-24 h).
For the SEAP assay: without disturbing the cells at the bottom of the well, 15 μL supernatant was transferred to a clear 384-well flat bottom plate and 35 μL QUANTI-Blue Solution per well was added. Following a 2 h incubation at 37° C., the optical density (OD) was measured at 620-655 nm using a microplate reader (PheraStar FS microplate reader with protocol for OD 620-655 nm).
Values of media-only wells were subtracted and % inhibition for each compound concentration relative to the DMSO/L18-MDP-treated controls was calculated. Inhibition values+/−SD were fitted by non-linear regression using Prism software (GraphPad PRISM Software) to calculate IC50 values.

T1 sequence (O43353 1-310 limits assumed): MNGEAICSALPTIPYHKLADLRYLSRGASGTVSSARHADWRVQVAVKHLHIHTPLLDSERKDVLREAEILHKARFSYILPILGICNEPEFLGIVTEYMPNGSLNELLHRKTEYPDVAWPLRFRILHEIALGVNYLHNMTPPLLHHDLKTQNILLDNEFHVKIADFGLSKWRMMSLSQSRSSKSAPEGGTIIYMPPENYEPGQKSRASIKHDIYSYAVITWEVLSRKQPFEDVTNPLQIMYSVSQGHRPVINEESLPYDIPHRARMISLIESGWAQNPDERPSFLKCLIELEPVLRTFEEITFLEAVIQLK

SMILES | Emax [1] [%] | IC50 [1] [nM] | IC50 ([2]; Homo sapiens, THP1-Dual) [nM] | IC50 [2] [nM] | PPI Amax bin [1]
CC(F)(CO)COc1cc2ncc(-c3cc(F)c(N)nc3F)n2cc1S(=O)(=O)C(C)(C)C (single isomer, unassigned) [Example 260] | > 80 | 1 to 2.5 | 50 to 250 | – | –
CC(F)(CO)COc1cc2ncc(-c3cc(F)c(N)nc3F)n2cc1S(=O)(=O)C(C)(C)C (single isomer, unassigned) [Example 261] | – | 1 to 2.5 | – | 50 to 250 | –
CC(F)(CO)COc1cc2ncc(-c3cc(Cl)c(N)nc3F)n2cc1S(=O)(=O)C(C)(C)C (single isomer, unassigned) [Example 265] | > 80 | 1 to 2.5 | 50 to 250 | – | –
CC(F)(CO)COc1cc2ncc(-c3cc(Cl)c(N)nc3F)n2cc1S(=O)(=O)C(C)(C)C (single isomer, unassigned) [Example 266] | – | 1 to 2.5 | – | 50 to 250 | A (an Amax of ≥80%)
COc1cc2ncc(-c3cc(NS(=O)(=O)c4cnn(C)c4)c(OC)c(OC)c3)n2cc1N1CC(C)CC1=O (single isomer, unassigned) [Example 274] | > 80 | 2.5 to 20 | – | 250 to 1000 | –
COc1cc2ncc(-c3cc(NS(=O)(=O)c4cnn(C)c4)c(OC)c(OC)c3)n2cc1N1CC(C)CC1=O (single isomer, unassigned) [Example 275] | – | 1 to 2.5 | – | 50 to 250 | A (an Amax of ≥80%)
COc1cc2ncc(-c3cc(F)c(OC)c(NC(C)c4cnn(C)c4)c3)n2cc1S(=O)(=O)C(C)(C)C (single isomer, unassigned) [Example 302] | > 80 | < 1 | – | < 50 | –
COc1cc2ncc(-c3cc(F)c(OC)c(NC(C)c4cnn(C)c4)c3)n2cc1S(=O)(=O)C(C)(C)C (single isomer, unassigned) [Example 303] | – | 2.5 to 20 | – | 250 to 1000 | A (an Amax of ≥80%)
COc1cc2ncc(-c3cc(F)c(OC)c(NS(=O)(=O)c4cnn(C)c4)c3)n2cc1C(F)(F)F [Example 136, N-(3-fluoro-2-methoxy-5-(7-methoxy-6-(trifluoromethyl)imidazo[1,2-a]pyridin-3-yl)phenyl)-1-methyl-1H-pyrazole-4-sulfonamide] | > 80 | 2.5 to 20 | 250 to 1000 | – | –
COc1cc2ncc(-c3cc(F)c(OC)c(NS(=O)(=O)c4cn[nH]c4)c3)n2cc1C(F)(F)F [Example 137, N-(3-fluoro-2-methoxy-5-(7-methoxy-6-(trifluoromethyl)imidazo[1,2-a]pyridin-3-yl)phenyl)-1H-pyrazole-4-sulfonamide] | > 80 | 2.5 to 20 | 250 to 1000 | – | –
CCOc1cc2ncc(-c3cc(F)c(OC)c(NS(=O)(=O)c4cnn(C)c4)c3)n2cc1S(=O)(=O)C(C)C [Example 138, N-(5-(7-ethoxy-6-(isopropylsulfonyl)imidazo[1,2-a]pyridin-3-yl)-3-fluoro-2-methoxyphenyl)-1-methyl-1H-pyrazole-4-sulfonamide] | > 80 | < 1 | < 50 | – | –
COc1cc2ncc(-c3cc(F)c(OC)c(NS(=O)(=O)c4c(C)nn(C)c4C)c3)n2cc1S(=O)(=O)C(C)(C)C [Example 139, N-(5-(6-(tert-butylsulfonyl)-7-methoxyimidazo[1,2-a]pyridin-3-yl)-3-fluoro-2-methoxyphenyl)-1,3,5-trimethyl-1H-pyrazole-4-sulfonamide] | 55 to 80 | > 20 | > 1000 | – | –
COc1cc2ncc(-c3cc(F)c(OC)c(NS(=O)(=O)c4cn[nH]c4)c3)n2cc1S(=O)(=O)C(C)(C)C [Example 140, N-(5-(6-(tert-butylsulfonyl)-7-methoxyimidazo[1,2-a]pyridin-3-yl)-3-fluoro-2-methoxyphenyl)-1H-pyrazole-4-sulfonamide] | > 80 | < 1 | < 50 | – | –
COc1cc2ncc(-c3cc(F)c(OC)c(NS(=O)(=O)c4cnn(C)c4)c3)n2cc1S(=O)(=O)C(C)C [Example 262, N-(3-fluoro-5-(6-(isopropylsulfonyl)-7-methoxyimidazo[1,2-a]pyridin-3-yl)-2-methoxyphenyl)-1-methyl-1H-pyrazole-4-sulfonamide] | > 80 | < 1 | < 50 | – | –
COc1c(F)cc(-c2cnc3cc(Cl)c(S(=O)(=O)C(C)(C)C)cn23)cc1NS(=O)(=O)c1cnn(C)c1 [Example 263, N-(5-(6-(tert-butylsulfonyl)-7-chloroimidazo[1,2-a]pyridin-3-yl)-3-fluoro-2-methoxyphenyl)-1-methyl-1H-pyrazole-4-sulfonamide] | > 80 | < 1 | < 50 | – | –
COc1c(F)cc(-c2cnc3cc(OC[C@H](C)O)c(S(=O)(=O)C(C)(C)C)cn23)cc1NS(=O)(=O)c1cnn(C)c1 [Example 264, (S)-N-(5-(6-(tert-butylsulfonyl)-7-(2-hydroxypropoxy)imidazo [1,2-a]pyridin-3-yl)-3-fluoro-2-methoxyphenyl)-1-methyl-1H-pyrazole-4-sulfonamide] | > 80 | < 1 | < 50 | – | –
C[C@H](O)COc1cc2ncc(-c3ccc(N)nc3F)n2cc1S(=O)(=O)C(C)(C)C [Example 267, (S)-1-((3-(6-amino-2-fluoropyridin-3-yl)-6-(tert-butylsulfonyl)imidazo [1,2-a]pyridin-7-yl)oxy)propan-2-ol] | > 80 | 2.5 to 20 | > 1000 | – | –
C[C@H](O)COc1cc2ncc(-c3cc4cc[nH]c4nc3F)n2cc1S(=O)(=O)C(C)(C)C [Example 268, (S)-1-((6-(tert-butylsulfonyl)-3-(6-fluoro-1H-pyrrolo[2,3-b]pyridin-5-yl)imidazo[1,2-a]pyridin-7-yl)oxy)propan-2-ol] | > 80 | < 1 | < 50 | – | –
COc1c(F)cc(-c2cnc3cc(OC[C@H](C)O)c(S(=O)(=O)C(C)(C)C)cn23)cc1NS(C)(=O)=O [Example 269, (S)-N-(5-(6-(tert-butylsulfonyl)-7-(2-hydroxypropoxy)imidazo[1,2-a]pyridin-3-yl)-3-fluoro-2-methoxyphenyl) methanesulfonamide] | 55 to 80 | < 1 | < 50 | – | –
CCS(=O)(=O)Nc1cc(-c2cnc3cc(OC[C@H](C)O)c(S(=O)(=O)C(C)(C)C)cn23)cc(F)c1OC [Example 270, (S)-N-(5-(6-(tert-butylsulfonyl)-7-(2-hydroxypropoxy)imidazo[1,2-a]pyridin-3-yl)-3-fluoro-2-methoxyphenyl) ethanesulfonamide] | 55 to 80 | < 1 | < 50 | – | –
